Reference: the supplement of paper PMC11451515

Experiments:
Conditions in all cases: 48 h
[1] = tested on: NOMO1; assay: cell viability relative to DMSO control; higher = less cytotoxic
In short: (§1)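 Cells were incubated for 48 h at 37°C before CellTiter-Glo One luminescence was read. The cells were NOMO1 or SEM (500 cells/well) or P12-Ichikawa (1000 cells/well) leukemia cells, adapted for at least four passages in each medium and seeded in 1536-well plates (5 μl). Dosing used library compounds in DMSO applied by pin over 11 threefold points, 47 μM to 0.79 nM. Viability is the per-plate percentage of DMSO wells, with cell-free wells as background.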

[2] = tested on: P12-Ichikawa; assay: as above
In short: as §1

[3] = tested on: SEM cells; assay: as above
In short: as §1

[4] = tested on: NOMO1; assay: AUC of viability dose-response curve (% viability x log10 dose units); higher = less sensitive
In short: (§2)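 Library compounds in DMSO were applied for 48 h at 37°C at 11 threefold doses (47 μM to 0.79 nM) to medium-adapted leukemia cells in 1536-well plates holding 500 or 1000 cells/well. Luminescence from CellTiter-Glo One was normalised plate by plate against DMSO and cell-free wells. Area under the curve came from trapezoidal integration of a log-logistic fit, after scaling curves that rose above full viability and discarding those that failed quality control. The fit had four parameters and used log10 doses.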

[5] = tested on: P12-Ichikawa; assay: as above
In short: as §2

[6] = tested on: SEM cells; assay: as above
In short: as §2

CC1(C)CCC(=C(CN2CCN(CC2)C3=CC=C(C=C3)C(=O)N[S+]([O-])(=O)C4=CC(=C(N[C@H](CCN5CCOCC5)CSC6=CC=CC=C6)C=C4)[S+]([O-])(=O)C(F)(F)F)\C1)/C7=CC=C(Cl)C=C7
cell viability [%]
Conditions	[1]	[2]	[3]
HPLM + 10% dialyzed FBS, 0.000781 µM	124	116	124
HPLM + 10% dialyzed FBS, 0.00234 µM	132	120	124
HPLM + 10% dialyzed FBS, 0.00702 µM	123	121	126
HPLM + 10% dialyzed FBS, 0.0211 µM	128	122	106
HPLM + 10% dialyzed FBS, 0.0632 µM	116	92.5	80.9
HPLM + 10% dialyzed FBS, 0.19 µM	112	40.9	18.3
HPLM + 10% dialyzed FBS, 0.569 µM	96.7	20	11.3
HPLM + 10% dialyzed FBS, 1.71 µM	57.1	6.68	8.83
HPLM + 10% dialyzed FBS, 5.12 µM	49.2	7.29	8.56
HPLM + 10% dialyzed FBS, 15.4 µM	39.2	7.3	7.32
HPLM + 10% dialyzed FBS, 46.1 µM	43.2	4.74	5.38
RPMI 5 mM glucose + 10% FBS, 0.000781 µM	–	–	85.5
RPMI 5 mM glucose + 10% FBS, 0.00234 µM	–	–	108
RPMI 5 mM glucose + 10% FBS, 0.00702 µM	–	–	95.9
RPMI 5 mM glucose + 10% FBS, 0.0211 µM	–	–	82.8
RPMI 5 mM glucose + 10% FBS, 0.0632 µM	–	–	42.1
RPMI 5 mM glucose + 10% FBS, 0.19 µM	–	–	19.6
RPMI 5 mM glucose + 10% FBS, 0.569 µM	–	–	8.77
RPMI 5 mM glucose + 10% FBS, 1.71 µM	–	–	6.49
RPMI 5 mM glucose + 10% FBS, 5.12 µM	–	–	5.65
RPMI 5 mM glucose + 10% FBS, 15.4 µM	–	–	5.78
RPMI 5 mM glucose + 10% FBS, 46.1 µM	–	–	4.31
RPMI 5 mM glucose + 10% dialyzed FBS, 0.000781 µM	116	120	111
RPMI 5 mM glucose + 10% dialyzed FBS, 0.00234 µM	125	124	135
RPMI 5 mM glucose + 10% dialyzed FBS, 0.00702 µM	118	127	100
RPMI 5 mM glucose + 10% dialyzed FBS, 0.0211 µM	117	122	102
RPMI 5 mM glucose + 10% dialyzed FBS, 0.0632 µM	90.1	109	49.6
RPMI 5 mM glucose + 10% dialyzed FBS, 0.19 µM	78.9	73.4	21
RPMI 5 mM glucose + 10% dialyzed FBS, 0.569 µM	61.7	39.1	9.94
RPMI 5 mM glucose + 10% dialyzed FBS, 1.71 µM	23.9	7.42	6.79
RPMI 5 mM glucose + 10% dialyzed FBS, 5.12 µM	24.7	7.07	6.8
RPMI 5 mM glucose + 10% dialyzed FBS, 15.4 µM	29.9	6.25	5.99
RPMI 5 mM glucose + 10% dialyzed FBS, 46.1 µM	22.5	4.69	4.42

AUC of viability dose-response curve
Conditions	[4]	[5]	[6]
HPLM + 10% dialyzed FBS	357	235	216
RPMI 5 mM glucose + 10% FBS	332	240	197
RPMI 5 mM glucose + 10% dialyzed FBS	291	259	197

O=C(CO)N1CCC(c2n[nH]c(-c3ccc(Cl)cc3)c2-c2ccncn2)CC1
cell viability [%]
Conditions	[1]	[2]	[3]
HPLM + 10% dialyzed FBS, 0.000781 µM	117	119	102
HPLM + 10% dialyzed FBS, 0.00234 µM	121	104	119
HPLM + 10% dialyzed FBS, 0.00702 µM	134	113	119
HPLM + 10% dialyzed FBS, 0.0211 µM	129	112	112
HPLM + 10% dialyzed FBS, 0.0632 µM	117	113	110
HPLM + 10% dialyzed FBS, 0.19 µM	129	109	104
HPLM + 10% dialyzed FBS, 0.569 µM	120	105	98.7
HPLM + 10% dialyzed FBS, 1.71 µM	117	100	101
HPLM + 10% dialyzed FBS, 5.12 µM	123	97.7	75.6
HPLM + 10% dialyzed FBS, 15.4 µM	34.6	55.7	64.9
HPLM + 10% dialyzed FBS, 46.1 µM	78.2	68.4	31
RPMI 5 mM glucose + 10% FBS, 0.000781 µM	111	117	114
RPMI 5 mM glucose + 10% FBS, 0.00234 µM	115	112	128
RPMI 5 mM glucose + 10% FBS, 0.00702 µM	118	118	123
RPMI 5 mM glucose + 10% FBS, 0.0211 µM	113	122	127
RPMI 5 mM glucose + 10% FBS, 0.0632 µM	121	114	107
RPMI 5 mM glucose + 10% FBS, 0.19 µM	111	113	123
RPMI 5 mM glucose + 10% FBS, 0.569 µM	113	114	109
RPMI 5 mM glucose + 10% FBS, 1.71 µM	115	110	106
RPMI 5 mM glucose + 10% FBS, 5.12 µM	119	87.8	85.3
RPMI 5 mM glucose + 10% FBS, 15.4 µM	57.3	24	49.4
RPMI 5 mM glucose + 10% FBS, 46.1 µM	96.3	58.5	16
RPMI 5 mM glucose + 10% dialyzed FBS, 0.000781 µM	113	122	131
RPMI 5 mM glucose + 10% dialyzed FBS, 0.00234 µM	123	116	108
RPMI 5 mM glucose + 10% dialyzed FBS, 0.00702 µM	116	114	108
RPMI 5 mM glucose + 10% dialyzed FBS, 0.0211 µM	105	116	141
RPMI 5 mM glucose + 10% dialyzed FBS, 0.0632 µM	123	117	110
RPMI 5 mM glucose + 10% dialyzed FBS, 0.19 µM	111	114	119
RPMI 5 mM glucose + 10% dialyzed FBS, 0.569 µM	109	113	128
RPMI 5 mM glucose + 10% dialyzed FBS, 1.71 µM	119	101	100
RPMI 5 mM glucose + 10% dialyzed FBS, 5.12 µM	113	97.7	79.7
RPMI 5 mM glucose + 10% dialyzed FBS, 15.4 µM	41.6	21.7	51.5
RPMI 5 mM glucose + 10% dialyzed FBS, 46.1 µM	92.8	55.4	20.1

AUC of viability dose-response curve
Conditions	[4]	[5]	[6]
HPLM + 10% dialyzed FBS	438	441	411
RPMI 5 mM glucose + 10% FBS	453	420	403
RPMI 5 mM glucose + 10% dialyzed FBS	446	423	404
